Measured values taken from US5438052A, “Cephalosporin derivatives” (Hoffmann-La Roche Inc., priority 1991, dated 1995).
Values after ≈ are worked out from the molar mass of the structure shown. Counter-ions that a name gives are not always drawn. Like-named read-outs stand apart in the source and are kept apart here.

Experiments:
C. freundii 902 = test: Minimum inhibitory concentration in vitro, agar dilution method; format: cell-based; details: Citrobacter freundii
Description: (§1) 1. Minimum Inhibitory Concentration in vitro
(§2) The activities ascertained, minimum inhibitory concentration (MIC) in μg/ml, are compiled in Table 1 hereinafter: […]

E. cloacae 908R = test: as above; format: cell-based; details: Enterobacter cloacae
Description: as §1, §2

E. cloacae 908SSi = test: as above; format: cell-based; details: Enterobacter cloacae
Description: as §1, §2

E. cloacae P99 = test: as above; format: cell-based; details: Enterobacter cloacae
Description: as §1, §2

E. coli 25922 [1] = test: as above; format: cell-based; details: Escherichia coli
Description: as §1, §2

K. oxytoca 1082 = test: as above; format: cell-based; details: Klebsiella oxytoca
Description: as §1, §2

K. pneumoniae 418 = test: as above; format: cell-based; details: Klebsiella pneumoniae
Description: as §1, §2

P. aeruginosa 27853 = test: as above; format: cell-based; details: Pseudomonas aeruginosa
Description: as §1, §2

P. aeruginosa 799/61 = test: as above; format: cell-based; details: Pseudomonas aeruginosa
Description: as §1, §2

P. aeruginosa 799/WT = test: as above; format: cell-based; details: Pseudomonas aeruginosa
Description: as §1, §2

P. aeruginosa BA = test: as above; format: cell-based; details: Pseudomonas aeruginosa
Description: as §1, §2

P. aeruginosa MK1184 = test: as above; format: cell-based; details: Pseudomonas aeruginosa
Description: as §1, §2

P. mirabilis 2117 = test: as above; format: cell-based; details: Proteus mirabilis
Description: as §1, §2

P. vulgaris 1028 = test: as above; format: cell-based; details: Proteus vulgaris
Description: as §1, §2

S. aureus 6538 = test: as above; format: cell-based; details: Staphylococcus aureus
Description: as §1, §2

S. marcescens 69438 = test: as above; format: cell-based; details: Serratia marcescens
Description: as §1, §2

S. pyogenes 15 = test: as above; format: cell-based; details: Streptococcus pyogenes
Description: as §1, §2

E. coli 25922 [2] = test: Experimental systemic septicaemia in the mouse; format: in vivo; details: 96 h
Procedure, shortened: (§3)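 ED50 in mg/kg s.c. is the Probit-derived dose protecting half the mice, judged on survival 4 days after i.p. challenge (about 5-100× 48 h LD50) in 16-20 g albino mice, 5 per group. Dosing was s.c. in 2% Tween 80 at 1 and 3 h, plus 5 h for P. aeruginosa.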

[3] = test system: Pseudomonas aeruginosa BA; test: Experimental systemic septicaemia in the mouse; format: in vivo; details: sc, 96 h
Procedure, shortened: as §3

S. aureus Schoch = test: Experimental systemic septicaemia in the mouse; format: in vivo; details: Staphylococcus aureus, sc, 96 h
Procedure, shortened: as §3

[4] = C. freundii 902, agar dilution, read-out: MIC
[5] = E. cloacae 908R, agar dilution, read-out: MIC
[6] = E. cloacae 908SSi, agar dilution, read-out: MIC
[7] = E. coli 25922, agar dilution, read-out: MIC
[8] = K. oxytoca 1082, agar dilution, read-out: MIC
[9] = K. pneumoniae 418, agar dilution, read-out: MIC
[10] = P. aeruginosa 27853, agar dilution, read-out: MIC
[11] = P. aeruginosa 799/61, agar dilution, read-out: MIC
[12] = P. aeruginosa 799/WT, agar dilution, read-out: MIC
[13] = P. aeruginosa BA, agar dilution, read-out: MIC
[14] = P. aeruginosa MK1184, agar dilution, read-out: MIC
[15] = P. mirabilis 2117, agar dilution, read-out: MIC
[16] = P. vulgaris 1028, agar dilution, read-out: MIC
[17] = S. aureus 6538, agar dilution, read-out: MIC
[18] = S. marcescens 69438, agar dilution, read-out: MIC
[19] = S. pyogenes 15, agar dilution, read-out: MIC
[20] = Escherichia coli, sc, E. coli 25922, albino mice, s.c. 1 and 3 hours after infection, survival after 4 days, read-out: ED50
[21] = P. aeruginosa BA, albino mice, s.c. 1, 3 and 5 hours after infection, survival after 4 days, read-out: ED50
[22] = S. aureus Schoch, albino mice, s.c. 1 and 3 hours after infection, survival after 4 days, read-out: ED50

Row | Compound | MIC (C. freundii 902; [4]) [µg/mL] | MIC (E. cloacae 908R; [5]) [µg/mL] | MIC (E. cloacae 908SSi; [6]) [µg/mL] | MIC (E. cloacae P99) [µg/mL] | MIC (E. coli 25922 [1]; [7]) [µg/mL] | MIC (K. oxytoca 1082; [8]) [µg/mL] | MIC (K. pneumoniae 418; [9]) [µg/mL] | MIC (P. aeruginosa 27853; [10]) [µg/mL] | MIC (P. aeruginosa 799/61; [11]) [µg/mL] | MIC (P. aeruginosa 799/WT; [12]) [µg/mL] | MIC (P. aeruginosa BA; [13]) [µg/mL] | MIC (P. aeruginosa MK1184; [14]) [µg/mL] | MIC (P. mirabilis 2117; [15]) [µg/mL] | MIC (P. vulgaris 1028; [16]) [µg/mL] | MIC (S. aureus 6538; [17]) [µg/mL] | MIC (S. marcescens 69438; [18]) [µg/mL] | MIC (S. pyogenes 15; [19]) [µg/mL] | ED50 (E. coli 25922 [2]; [20]) [mg/kg] | ED50 [3, 21] [mg/kg] | ED50 (S. aureus Schoch; [22]) [mg/kg] | other results
1 | Cc1cc(SCC2=C(C(=O)O)N3C(=O)[C@@H](NC(=O)/C(=N\OCc4ccc(O)c(O)c4)c4csc(N)n4)[C@H]3SC2)n2nc(CNS(=O)(=O)c3ccc(O)c(O)c3)nc2n1 [Example 4, (6R,7R)-7-[(Z)-2-(2-amino-4-thiazolyl)-2-[[(3,4-dihydroxybenzyl)oxy]imino]acetamido]-3-[[[2-[(3,4-dihydroxybenzenesulphonamido)methyl]-5-methyl-s-triazolo[1,5-a]pyrimidin-7-yl]thio]methyl]-8-oxo-5-thia-1-azabicyclo[4.2.0]oct-2-ene-2carboxylic acid] | < 0.1 | 1 (≈ 1.15 µM) | 4 (≈ 4.59 µM) | 32 (≈ 36.7 µM) | < 0.1 | 16 (≈ 18.4 µM) | < 0.1 | 0.5 (≈ 0.574 µM) | 0.12 (≈ 0.138 µM) | 0.25 (≈ 0.287 µM) | < 0.1 | 0.25 (≈ 0.287 µM) | 0.25 (≈ 0.287 µM) | 1 (≈ 1.15 µM) | 4 (≈ 4.59 µM) | 0.12 (≈ 0.138 µM) | 0.25 (≈ 0.287 µM) | < 0.1 | 0.12 | 3.1 | 
2 | Cc1cc(SCC2=C(C(=O)O)N3C(=O)[C@@H](NC(=O)/C(=N\OCc4ccc(O)c(O)c4F)c4csc(N)n4)[C@H]3SC2)n2nc(CNS(=O)(=O)c3ccc(O)c(O)c3)nc2n1 [Example 5, 7-[(Z)-2-(2-amino-4-thiazolyl)-2-[[(2-fluoro-3,4-dihydroxybenzyl)oxy]imino]acetamido]-3-[[[2-[(3,4-dihydroxybenzenesulphonamido)methyl]-5-methyl-s-triazolo[1,5-a]pyrimidin-7-yl]thio]methyl]-8-oxo-5-thia-1-azabicyclo[4.2.0]oct-2-ene-2-carboxylic acid sodium salt (1:1)] | < 0.1 | 0.25 | 1 | 4 | < 0.1 | 0.25 | < 0.1 | 0.12 | < 0.1 | < 0.1 | 0.12 | < 0.1 | 0.25 | 0.5 | 4 | < 0.1 | 0.5 | < 0.1 | 0.034 | 3.1 | 
3 | Cc1cc(SCC2=C(C(=O)[O-])N3C(=O)[C@@H](NC(=O)/C(=N\OCc4ccc(O)c(O)c4)c4csc(N)n4)[C@H]3SC2)n2nc(COC(=O)c3ccc(O)c(O)c3)nc2n1.[Na+] [Example 8, (6R,7R)-7-[(Z)-2-(2-amino-4-thiazolyl)-2-[[(3,4-dihydroxybenzyl)oxy]imino]acetamido]-3-[[[2-[[(3,4-dihydroxybenzoyl)oxy]methyl]-5-methyl-s-triazolo[1,5-a]pyrimidin-7-yl]thio]methyl]-8-oxo-5-thia-1-azabicyclo[4.2.0]oct-2-ene-2-carboxylic acid sodium salt (1:1)] |  |  |  | 8 |  |  |  |  |  |  |  |  |  |  |  |  |  |  |  |  | MIC (C. freundii 902; 902): < 0.1 µg/mL; MIC (E. cloacae 908R; 908R): 0.25 µg/mL; MIC (E. cloacae 908SSi; 908SSI): 2 µg/mL; MIC (E. coli 25922 [1]; 25922): < 0.1 µg/mL; MIC (K. oxytoca 1082; 1082): < 0.1 µg/mL; MIC (K. pneumoniae 418; 418): < 0.1 µg/mL; MIC (P. aeruginosa 27853; 27853): 0.12 µg/mL; MIC (P. aeruginosa 799/61; 799/61): < 0.1 µg/mL; MIC (P. aeruginosa 799/WT; 799/WT): < 0.1 µg/mL; MIC (P. aeruginosa BA): < 0.1 µg/mL; MIC (P. aeruginosa MK1184; MK1184): < 0.1 µg/mL; MIC (P. mirabilis 2117; 2117): < 0.1 µg/mL; MIC (P. vulgaris 1028; 1028): < 0.1 µg/mL; MIC (S. aureus 6538; 6538): 4 µg/mL; MIC (S. marcescens 69438; 69438): 0.12 µg/mL; MIC (S. pyogenes 15; 15): 1 µg/mL; ED50 (E. coli 25922 [2]; Escherichia coli, 25922, sc): < 0.1 mg/kg; ED50 [3]: 0.45 mg/kg; ED50 (S. aureus Schoch): 2 mg/kg
